{
  "source": "patent US12084523B2",
  "about": "“Ubiquitin high affinity cyclic peptides and methods of use thereof” (TECHNION RESEARCH & DEVELOPMENT FOUNDATION LIMITED, priority 2018, dated 2024)",
  "key": {"^K48Ub4": {"biological_target": "T1, ^K48Ub4 (Homo sapiens, UniProt P0CG47)", "T1 construct": "solid phase peptide synthesis of Ub monomers (modified as required); made in house", "assay": "SPR binding of cyclic peptides to K48-linked tetra-ubiquitin", "conditions": "SPR, target ^K48Ub4", "protocol": "Surface Plasmon Resonance (SPR)\nThe interactions between cyclic peptides: U2i, U2ii, U4i, U4ix and Ub1, ^K48Ub2 and ^K48Ub4, were determined using BIACORE T100 instrument (GE healthcare) equipped with a biotin CAPture kit Series S chip. The buffer in all experiments contained 50 mM HEPES, pH 7.3, 150 mM NaCl, 0.05% Tween20, 2 mM DTT with 0.2% DMSO. Biotinylated Ub1, ^K48Ub2 and ^K48Ub4 were loaded to approximately equal molar amounts on the SPR chip, and various concentrations of cyclic peptides were flowed over at […] for 120 sec, before initiation of dissociation by flowing buffer over at […] for further 700 sec. Traces were fit to the simplest, two-state model for binding. Association was fit to a single exponential assuming pseudo-first order conditions, whereas the dissociation trace was fit to single exponential plus a drift term. Finally, due to the poor quality of the traces for U4ix binding ^K48Ub2, the amplitude of the association kinetic trace at different concentrations of peptide was fit to estimate the lower bound for KD.\nEach peptide was flowed over Ub1, ^K48Ub2 and […] immobilized on SPR chips. There was no detectable binding to Ub1 for any of the peptides, as expected, as Ub1 binding was explicitly selected against during the RaPID protocol. […] However, Ub2i and Ub2ii also strongly bound ^K48Ub4, with a low apparent KD and an increased SPR response (FIG. 1E). This was consistent with a higher stoichiometry of binding to the tetramer, which could be explained by additional binding sites in ^K48Ub4. Indeed, the ^K48Ub2 structure can be superimposed twice on the ^K48Ub4 crystal structure (FIG. 10). […] However, similar to Ub2i and Ub2ii, Ub4i also bound ^K48Ub2. This was perhaps unsurprising, given the high sequence identity between Ub4i and Ub2i."}, "USP2 [1]": {"system": "USP2", "assay": "In vitro deubiquitination assay, USP2 with K48-linked di-Ub", "format": "biochemical", "conditions": "di-Ub as the substrate", "protocol": "(§1) In Vitro Deubiquitination Assay\n(§2) In vitro deubiquitination reactions were performed in a Tris buffer (50 mM TRIS, 1 mM TCEP, pH 7.7), containing 2 μM ^K48Ub2/4, then the specific DUB (50 mM Tris, 0.5 mM EDTA, 1 mM TCEP and 0.5 mg/ml ovalbumin, pH 7.5) was added. The reaction mixtures were incubated at 37° C. and at the indicated time points the reactions were stopped by taking aliquots and mixed them with 3× sample buffer and boiling. The same amounts were loaded on 14% SDS-PAGE, electro-blotted to nitrocellulose membrane and probed with an anti-Ub antibody. Bands were quantified with Image Quant LAS 4000 (GE Healthcare).\n(§3) The inventors further chose to examine the effect of these cyclic peptides on two DUBs: OTUB1, a K48-linkage chain specific DUB, and USP2, which cleaves most Ub chains without specificity, using K48-linked di- and tetra-Ub chains as substrates."}, "USP2 [2]": {"system": "USP2", "assay": "In vitro deubiquitination assay, USP2 with K48-linked tetra-Ub", "format": "biochemical", "conditions": "tetra-Ub chain, after removal of the distal Ub (tri-Ub)", "protocol": "as §1, §2, §3"}, "26S proteasome": {"system": "26S proteasome", "assay": "In vitro proteasome degradation assay of HA-α-globin-K48-linked tetra-Ub", "format": "biochemical", "conditions": "5.3 μM peptide"}, "HeLa cells [3]": {"system": "HeLa cells", "format": "cell-based, human", "conditions": "MTT", "protocol": "Cell Viability Assays and Kinetic Experiments In order to assess the effect of the cyclic peptides on Hela cells, toxicity was determined using the MTT assay. Equal amounts of cells (8,000 cells/well) were plated in 96-well plates in triplicate. After 24 hours, attached cells were exposed to increasing concentrations of the cyclic peptides for another 24 hours. […] Optical density was recorded at 590 nm with a reference measurement at 630 nm."}, "HeLa cells [4]": {"system": "HeLa cells", "assay": "Annexin V-FITC FACS apoptosis analysis", "format": "cell-based, human", "conditions": "10 μM, 24 h and 48 h", "protocol": "Fluorescence-Activated Cell Sorting (FACS) Analysis\nInduction of apoptosis in Hela cells by treatment with cyclic peptides were determined after 24 and 48 hours incubation in a dose dependent manner, using annexin V-FITC apoptosis detection kit (BD Biosciences) according to the manufacturer s protocol. Two (2)×10^5 cells/well were seeded in 6-well plates and treated with an inhibitor for 24/48 hours in a dose dependent manner. The increase in fluorescence, which indicates the apoptosis level in the treated cells, were monitored using flow cytometry and compared to untreated cells containing DMSO as a negative control and MG132 as a positive control.\nGiven that Ub4ix has a pronounced inhibitory effect on the UPS system, the inventors further wanted to examine whether it inhibit cell growth and induce apoptosis in cancer cells. […] The effects of the cyclic peptides on apoptosis were evaluated using FACS analysis."}, "[5]": {"system": "Ub-conjugates in HeLa cells", "assay": "Western blot of cellular Ub-conjugates", "format": "cell-based, human", "protocol": "(§4) FIGS. 5A-5F are images and graphs showing the uptake of Ub4ix by living cells and its cellular effect. (5A) is an image of the structure of fluorescein-5-maleimide-Ub4ix. (5B) is micrographs of HeLa cells incubated in the presence of DMSO (Negative control) or fluorescein-5-maleimide-Ub4ix cyclic peptide (20 μM). Internalization of the peptide into the cells was monitored at the indicated time points. Ub4ix induced the accumulation of Ub-conjugates, as a result of proteolysis inhibition. (5C) is an image of a western blot analysis of ubiquitinated proteins from HeLa cells which were incubated in the presence of Ub4ix, fluorescein-5-maleimide-Ub4ix, or MG132 for the indicated time-periods. Cells were lysed, resolved using SDS-PAGE, proteins were transferred to a nitrocellulose membrane, and the membrane was blotted using an antibody against Ub-conjugates (Ub conj), and Actin. (5D) is a graph of radio-labeled proteins from HeLa cells which were labeled with radioactive S-Met and S-Cys and were then chased for 4 hours in “cold” media. Cells were either non-treated (Control), or incubated in the presence of DMSO, Ub4ix, or MG132, at the indicated concentrations. Radioactivity levels, resulting from protein breakdown during the chase phase, were measured using a scintillation counter. […]"}, "[6]": {"system": "cellular protein breakdown in HeLa cells", "assay": "Radioactive pulse and chase, degradation-inhibition assay", "format": "cell-based, human", "conditions": "4 h chase, vs non-treated or DMSO", "protocol": "Radioactive Pulse and Chase\nFor degradation-inhibition assays, cells were labeled with ^35S-methionine and cysteine (20 μCi) for 16 hours, followed by a chase in cold medium for 4 hours, in the presence of DMSO, proteasome inhibitor MG132, or Ub4ix. Media were then collected, and amino acids were extracted using TCA precipitation. Radioactive readings were measured using a scintillation counter.\nIn order to directly measure the effect of Ub4ix on proteolysis, the inventors employed radiolabeling of cellular proteins, followed by a chase experiment in the presence of either Ub4ix or the proteasome inhibitor MG132. […] The inventors validated this inhibitory effect on protein breakdown with known proteasomal substrates, the proteins p53, and p27, bona fide substrates of the UPS."}, "[7]": {"system": "p53 and p27 in HeLa cells", "assay": "Western blot of proteasomal substrates p53 and p27", "format": "cell-based, human", "protocol": "as §4"}, "[8]": {"system": "protein synthesis in HeLa cells", "assay": "Radioactive pulse assay of protein synthesis", "format": "cell-based, human", "conditions": "35S-Met/Cys incorporation", "protocol": "HeLa cells were incubated with either DMSO, ribosomal inhibitor cycloheximide (CHX), or Ub4ix. After 4 hours, media were replaced with media containing radioactive Methionine and Cysteine, and cells where pulsed for 4 hours. Cells were thoroughly washed, proteins were extracted from the cells, and the radioactive readings of each sample were measured using a scintillation counter, indicating the extent of incorporation of radiolabeled Methionine and Cysteine into newly synthesized proteins.\nFor the assay of inhibitions of protein synthesis, cells were incubated with DMSO, ribosomal inhibitor cycloheximide (CHX), or Ub4ix. After 4 hours, media were replaced with medium containing ^35S-methionine and cysteine (20 μCi) and cells where pulsed for 4 hours. Plates were extensively washed with ice-cold PBS and proteins were extracted from cells using trichloroacetic acid (TCA) precipitation. The radioactive readings were measured using a scintillation counter."}},
  "data": [
    {"smiles": "CC[C@H](C)[C@@H]1NC(=O)[C@H](Cc2c[nH]c3ccccc23)NC(=O)[C@H](Cc2c[nH]c3ccccc23)NC(=O)[C@H](CC(=O)O)NC(=O)CNC(=O)[C@H](CO)NC(=O)[C@H](CC(=O)O)NC(=O)[C@H](CC(=O)O)NC(=O)[C@H](CC(C)C)NC(=O)[C@H](Cc2ccc(O)cc2)NC(=O)[C@H](CC(C)C)NC(=O)[C@@H](Cc2c[nH]c3ccccc23)NC(=O)CSC[C@@H](C(=O)NCC(N)=O)NC1=O", "note": "[Ub4ix]", "values": [
      {"measurement": "koff", "setting": "^K48Ub4", "value": 0.021, "unit": "s⁻¹"},
      {"measurement": "kon", "setting": "^K48Ub4", "value": "3.52e+06", "unit": "M⁻¹ s⁻¹"},
      {"measurement": "inhibition of USP2", "setting": "USP2 [1]", "value": "minimal inhibition"},
      {"measurement": "inhibition of USP2", "setting": "USP2 [2]", "value": "strong inhibition"},
      {"measurement": "inhibition of proteasomal degradation of α-globin-K48-linked tetra-Ub", "setting": "26S proteasome", "value": "clear inhibition"},
      {"measurement": "suppression of cell growth", "setting": "HeLa cells [3]", "value": "most effective"},
      {"measurement": "apoptosis", "setting": "HeLa cells [4]", "value": "clear increase in apoptosis"},
      {"measurement": "cellular level of Ub-conjugates", "setting": "[5]", "value": "elevation in Ub-conjugates"},
      {"measurement": "protein breakdown", "setting": "[6]", "value": "markedly reduced"},
      {"measurement": "p53 and p27 levels", "setting": "[7]", "value": "accumulated over time"},
      {"measurement": "effect on protein synthesis", "setting": "[8]", "value": "does not interfere with protein synthesis"}
    ]}
  ]
}
